From patent US11851406B2, “Positive allosteric modulators of the muscarinic acetylcholine receptor M1” (Vanderbilt University, priority 2018, dated 2023)

Tests used:
[1] = biological target: T1, human mAChR M1 (Homo sapiens, UniProt P11229); experiment: mAChR M1 cell-based functional assay (calcium mobilization), PAM activity: increase in the EC20 acetylcholine response; conditions: CHO-K1 cells expressing hM1; calcium flux (Fluo-4); potentiation of EC20 acetylcholine response
T1 sequence (P11229 1-460): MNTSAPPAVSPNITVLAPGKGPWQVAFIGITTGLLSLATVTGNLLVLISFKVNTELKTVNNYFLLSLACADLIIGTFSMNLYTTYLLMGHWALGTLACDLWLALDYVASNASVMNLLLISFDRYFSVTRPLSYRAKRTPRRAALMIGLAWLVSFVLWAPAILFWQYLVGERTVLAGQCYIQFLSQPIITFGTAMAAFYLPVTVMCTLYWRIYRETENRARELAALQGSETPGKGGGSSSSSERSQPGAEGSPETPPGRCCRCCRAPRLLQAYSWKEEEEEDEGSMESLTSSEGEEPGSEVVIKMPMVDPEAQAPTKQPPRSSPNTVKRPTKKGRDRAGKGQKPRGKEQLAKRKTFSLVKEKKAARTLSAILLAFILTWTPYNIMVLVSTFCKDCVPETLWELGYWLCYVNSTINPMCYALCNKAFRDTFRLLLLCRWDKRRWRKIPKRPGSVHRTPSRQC
Summary of the method: (§1)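 Calcium mobilization in CHO-K1 cells stably expressing hM1, Fluo-4 loaded; 11-point 1:3 compound series added at 4 s, acetylcholine EC20 at 144 s, kinetic fluorescence ratio at 1 Hz. Agonism: rise on compound alone, Emax relative to acetylcholine maximum; PAM: potentiation of EC20 response; four-parameter logistic fits.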

[2] = biological target: T1, human mAChR M1; experiment: mAChR M1 cell-based functional assay (calcium mobilization), agonist activity upon compound addition alone; conditions: CHO-K1 cells expressing hM1; for EC50: calcium mobilization upon compound addition, no acetylcholine; for Emax: compound alone, relative to the maximum for acetylcholine
Summary of the method: as §1

| EC50 [1] | Emax [1] | EC50 [2] | Emax [2] | Structure (SMILES) |
| --- | --- | --- | --- | --- |
| 0.863 µM | 47% | > 10 µM | 8% | Cc1nc(-c2ccc(Cc3cc(C(=O)N[C@H]4CCOC[C@@H]4O)nc(-n4cccn4)c3C)cc2)co1 [Compound 45, N-((3R,4S)-3-hydroxytetrahydro-2H-pyran-4-yl)-5-methyl-4-(4-(2-methyloxazol-4-yl)benzyl)-6-(1H-pyrazol-1-yl)picolinamide] |
| 0.881 µM | 85% | ≥ 10 µM | 28% | Cc1c(Cc2ccc(-c3ccn(C)n3)nc2)cc(C(=O)N[C@H]2CCCC[C@@H]2O)nc1-n1cccn1 [Compound 46, N-((1S,2S)-2-hydroxycyclohexyl)-5-methyl-4-((6-(1-methyl-1H-pyrazol-3-yl)pyridin-3-yl)methyl)-6-(1H-pyrazol-1-yl)picolinamide] |
| 0.675 µM | 85% | 9.08 µM | 29% | Cc1c(Cc2ccc(-c3cnn(C)c3)nc2)cc(C(=O)N[C@H]2CCCC[C@@H]2O)nc1-n1cccn1 [Compound 47, N-((1S,2S)-2-hydroxycyclohexyl)-5-methyl-4-((6-(1-methyl-1H-pyrazol-4-yl)pyridin-3-yl)methyl)-6-(1H-pyrazol-1-yl)picolinamide] |
| 0.832 µM | 59% | 8.59 µM | 10% | Cc1nc(-c2ccc(Cc3cc(C(=O)N[C@H]4CCCC[C@@H]4O)nc(-n4cccn4)c3C)cc2)co1 [Compound 48, N-((1S,2S)-2-hydroxycyclohexyl)-5-methyl-4-(4-(2-methyloxazol-4-yl)benzyl)-6-(1H-pyrazol-1-yl)picolinamide] |
| – | 63% | > 10 µM | < 5% | Cc1c(Cc2ccc(-c3ccn(C)n3)nc2)cc(C(=O)NC2CCOCC2)nc1-n1cccn1 [Compound 49, 5-methyl-4-((6-(1-methyl-1H-pyrazol-3-yl)pyridin-3-yl)methyl)-6-(1H-pyrazol-1-yl)-N-(tetrahydro-2H-pyran-4-yl)picolinamide] |
| – | 65% | > 10 µM | < 5% | Cc1c(Cc2ccc(-c3cnn(C)c3)nc2)cc(C(=O)NC2CCOCC2)nc1-n1cccn1 [Compound 50, 5-methyl-4-((6-(1-methyl-1H-pyrazol-4-yl)pyridin-3-yl)methyl)-6-(1H-pyrazol-1-yl)-N-(tetrahydro-2H-pyran-4-yl)picolinamide] |
| – | 69% | > 10 µM | < 5% | Cc1nc(-c2ccc(Cc3cc(C(=O)NC4CCOCC4)nc(-n4cccn4)c3C)cc2)co1 [Compound 51, 5-methyl-4-(4-(2-methyloxazol-4-yl)benzyl)-6-(1H-pyrazol-1-yl)-N-(tetrahydro-2H-pyran-4-yl)picolinamide] |
| 5.03 µM | 84% | > 10 µM | 9% | Cc1c(Cc2ccc(-c3ccn(C)n3)nc2)cc(C(=O)N[C@H]2CCC[C@@H]2O)nc1-n1cccn1 [Compound 52, N-((1S,2S)-2-hydroxycyclopentyl)-5-methyl-4-((6-(1-methyl-1H-pyrazol-3-yl)pyridin-3-yl)methyl)-6-(1H-pyrazol-1-yl)picolinamide] |
| 3.96 µM | 75% | > 10 µM | 5% | Cc1c(Cc2ccc(-c3cnn(C)c3)nc2)cc(C(=O)N[C@H]2CCC[C@@H]2O)nc1-n1cccn1 [Compound 53, N-((1S,2S)-2-hydroxycyclopentyl)-5-methyl-4-((6-(1-methyl-1H-pyrazol-4-yl)pyridin-3-yl)methyl)-6-(1H-pyrazol-1-yl)picolinamide] |
| 3.87 µM | 52% | > 10 µM | < 5% | Cc1nc(-c2ccc(Cc3cc(C(=O)N[C@H]4CCC[C@@H]4O)nc(-n4cccn4)c3C)cc2)co1 [Compound 54, N-((1S,2S)-2-hydroxycyclopentyl)-5-methyl-4-(4-(2-methyloxazol-4-yl)benzyl)-6-(1H-pyrazol-1-yl)picolinamide] |
| 0.324 µM | 77% | 6.7 µM | 22% | Cc1c(Cc2ccc(-n3cccn3)cc2)cc(C(=O)N[C@H]2CCOC[C@@H]2O)nc1-c1ccn(C)n1 [Compound 55, 4-(4-(1H-pyrazol-1-yl)benzyl)-N-((3R,4S)-3-hydroxytetrahydro-2H-pyran-4-yl)-5-methyl-6-(1-methyl-1H-pyrazol-3-yl)picolinamide] |
| 0.906 µM | 81% | > 10 µM | < 5% | Cc1c(Cc2ccc(-n3cccn3)cc2)cc(C(=O)N[C@H]2CCCC[C@@H]2O)nc1-c1ccn(C)n1 [Compound 56, 4-(4-(1H-pyrazol-1-yl)benzyl)-N-((1S,2S)-2-hydroxycyclohexyl)-5-methyl-6-(1-methyl-1H-pyrazol-3-yl)picolinamide] |
| 5.7 µM | 81% | > 10 µM | < 5% | Cc1c(Cc2ccc(-n3cccn3)cc2)cc(C(=O)NC2CCOCC2)nc1-c1ccn(C)n1 [Compound 57, 4-(4-(1H-pyrazol-1-yl)benzyl)-5-methyl-6-(1-methyl-1H-pyrazol-3-yl)-N-(tetrahydro-2H-pyran-4-yl)picolinamide] |
| 6 µM | 83% | > 10 µM | < 5% | Cc1c(Cc2ccc(-n3cccn3)cc2)cc(C(=O)NC2CC3(COC3)C2)nc1-c1ccn(C)n1 [Compound 58, 4-(4-(1H-pyrazol-1-yl)benzyl)-5-methyl-6-(1-methyl-1H-pyrazol-3-yl)-N-(2-oxaspiro[3.3]heptan-6-yl)picolinamide] |
| 1.98 µM | 85% | > 10 µM | < 5% | Cc1c(Cc2ccc(-n3cccn3)cc2)cc(C(=O)N[C@H]2CCC[C@@H]2O)nc1-c1ccn(C)n1 [Compound 59, 4-(4-(1H-pyrazol-1-yl)benzyl)-N-((1S,2S)-2-hydroxycyclopentyl)-5-methyl-6-(1-methyl-1H-pyrazol-3-yl)picolinamide] |
| – | 79% | > 10 µM | < 5% | Cc1c(Cc2ccc(-n3cccn3)cc2)cc(C(=O)N[C@H]2CC[C@@H]2O)nc1-c1ccn(C)n1 [Compound 60, 4-(4-(1H-pyrazol-1-yl)benzyl)-N-((1S,2S)-2-hydroxycyclobutyl)-5-methyl-6-(1-methyl-1H-pyrazol-3-yl)picolinamide] |
| – | 64% | > 10 µM | < 5% | Cc1c(Cc2ccc(-n3cccn3)cc2)cc(C(=O)NCC2CCOCC2)nc1-c1ccn(C)n1 [Compound 61, 4-(4-(1H-pyrazol-1-yl)benzyl)-5-methyl-6-(1-methyl-1H-pyrazol-3-yl)-N-((tetrahydro-2H-pyran-4-yl)methyl)picolinamide] |
| 4.63 µM | 77% | > 10 µM | < 5% | Cc1c(Cc2ccc(-n3cccn3)cc2)cc(C(=O)NC[C@@H]2CCCO2)nc1-c1ccn(C)n1 [Compound 62, (S)-4-(4-(1H-pyrazol-1-yl)benzyl)-5-methyl-6-(1-methyl-1H-pyrazol-3-yl)-N-((tetrahydrofuran-2-yl)methyl)picolinamide] |
| – | 57% | > 10 µM | < 5% | Cc1c(Cc2ccc(-n3cccn3)cc2)cc(C(=O)NC[C@H]2CCCO2)nc1-c1ccn(C)n1 [Compound 63, (R)-4-(4-(1H-pyrazol-1-yl)benzyl)-5-methyl-6-(1-methyl-1H-pyrazol-3-yl)-N-((tetrahydrofuran-2-yl)methyl)picolinamide] |
